Measurements: patent publication US6855728B2, “Small-molecule modulators of hepatocyte growth factor / scatter factor activities” (North Shore-Long Island Jewish Health System, priority 2001, dated 2005)

Columns and labels:
[1] = system: Endothelial cells (HUVECs); test: Endothelial cell (HUVEC) proliferation assay, 3H thymidine incorporation, compound without added growth factor; format: cell-based, human
Experimental: Cell proliferation assays Endothelial cells (HUVECs) were seeded in 48 well plates at a density of 10,000 to 20,000 cells per well in the normal growth medium (EGM-2-Clonetics) containing 2% fetal bovine serum, FGF, VEGF, IGF, ascorbic acid, EGF, GA, heparin and hydrocortisone. The cells were grown normally in the growth medium for 24 hr at 37 degrees C. and 5% CO2. The cells were then rinsed with RPMI-1% BSA and starved for 1-2 hrs. The stock solutions of all the compounds were made at a concentration of 10 mg/ml in DMSO and diluted in RPMI-1% BSA at a final concentrations of 1 to 12 microgram/ml. The cells were then washed and treated with the compounds and incubated for another 24 hr at 37 degrees C. Then ^3H thymidine (0.5 microgram/ml in RPMI-BSA) was added to the cells and incubated at 37 degrees C. for 4 to 5 hours. The unincorporated thymidine was removed by washing the cells four times with 1× PBS. Then the cells were lysed with 0.5M NaOH for 30 min and the radioactivity counted in the beta counter. […]

[2] = system: HGF/SF induced proliferation of HUVEC; test: Endothelial cell (HUVEC) proliferation assay in the presence of exogenously-added HGF/SF; format: cell-based, human; conditions: with HGF/SF; for inhibition at 6 µg/mL / inhibition at 2 µg/mL: Homo sapiens; for inhibition at 6 µg/mL / Activity at 6 microgram/ml With HGF/SF: inhibition (blocked SF) / Activity at 6 microgram/ml With HGF/SF (result in words): 6 microgram/ml; for inhibition at 6 µg/mL: read-out: Activity at 6 microgram/ml With HGF/SF: inhibition (blocked SF); for Inhibition at 6-12 micrograms/ml With: inhibition of endothelial cell proliferation; for inhibition at 2 µg/mL: read-out: Activity at 2 microgram/ml With HGF/SF: inhibition (blocked SF); for Stimulation at 6-12 micrograms/ml With: stimulation of endothelial cell proliferation
From the text: To evaluate inhibitors of activity, compounds may be evaluated directly for anti-proliferative activities, such as the inhibition of cellular proliferation, inhibition of tumor growth, inhibition of scatter, and inhibition of gene expression, and may also be evaluated on their ability to inhibit activity when exposed to cells together with. In such instances, the scatter and/or proliferative activities induced by added will be inhibited by the attendant presence of an inhibitory compound of the invention.
Cell proliferation assays Endothelial cells (HUVECs) were seeded in 48 well plates at a density of 10,000 to 20,000 cells per well in the normal growth medium (EGM-2-Clonetics) containing 2% fetal bovine serum, FGF, VEGF, IGF, ascorbic acid, EGF, GA, heparin and hydrocortisone. The cells were grown normally in the growth medium for 24 hr at 37 degrees C. and 5% CO2. The cells were then rinsed with RPMI-1% BSA and starved for 1-2 hrs. The stock solutions of all the compounds were made at a concentration of 10 mg/ml in DMSO and diluted in RPMI-1% BSA at a final concentrations of 1 to 12 microgram/ml. The cells were then washed and treated with the compounds and incubated for another 24 hr at 37 degrees C. Then ^3H thymidine (0.5 microgram/ml in RPMI-BSA) was added to the cells and incubated at 37 degrees C. for 4 to 5 hours. The unincorporated thymidine was removed by washing the cells four times with 1× PBS. Then the cells were lysed with 0.5M NaOH for 30 min and the radioactivity counted in the beta counter.

[3] = inhibition of HUVEC proliferation
[4] = 2 microgram/ml, inhibition of HUVEC proliferation
[5] = 6-12 micrograms/ml, without HGF/SF, stimulation of endothelial cell proliferation
[6] = 2 microgram/ml, without HGF/SF, stimulation of HUVEC proliferation
[7] = 6-12 micrograms/ml, without HGF/SF
[8] = Homo sapiens, 6 microgram/ml, without HGF/SF, inhibition of HUVEC proliferation

CSC(=NS(=O)(=O)c1ccccc1)NNC(=O)c1c(-c2c(Cl)cccc2Cl)noc1C [N1-((2-((3-(2,6-dichlorophenyl)-5-methylisoxazol-4-yl)carbonyl)hydrazino)(methylthio)methylidene)benzene-1-sulfonamide]
Activity at 2 microgram/ml Without HGF/SF (result in words) ([1]; 2 microgram/ml, without HGF/SF): No effect | Activity at 6 microgram/ml Without HGF/SF (result in words) ([1]; 6 microgram/ml, without HGF/SF): No effect | Activity at 2 microgram/ml With HGF/SF (result in words) ([2]; 2 microgram/ml): No effect | inhibition at 6 µg/mL [2, 3]: 25%

Cc1nc(C(=O)NNC(=O)c2c(-c3c(Cl)cccc3Cl)noc2C)cs1 [N′4-((2-methyl-1,3-thiazol-4-4yl)carbonyl)-3-(2,6-dichlorophenyl)-5-methylisoxazole-4-4carbohydrazide]
Activity at 2 microgram/ml Without HGF/SF (result in words) ([1]; 2 microgram/ml, without HGF/SF): No effect | Activity at 6 microgram/ml Without HGF/SF: stimulation ([1]; 6 microgram/ml, without HGF/SF, stimulation of HUVEC proliferation): 52% | Activity at 2 microgram/ml With HGF/SF: inhibition (blocked SF) [2, 4]: 50% | Activity at 6 microgram/ml With HGF/SF: inhibition (blocked SF) [2, 3]: 50%

Cc1nn(S(=O)(=O)c2ccc(Cl)cc2)c(C)c1Cc1c(Cl)cccc1Cl [1-((4-chlorophenyl)sulfonyl)-4-(2,6-dichlorobenzyl)-3,5-dimethyl-1H-pyrazol]
Activity at 2 microgram/ml Without HGF/SF (result in words) ([1]; 2 microgram/ml, without HGF/SF): No effect | Activity at 6 microgram/ml Without HGF/SF (result in words) ([1]; 6 microgram/ml, without HGF/SF): No effect | Activity at 2 microgram/ml With HGF/SF (result in words) ([2]; 2 microgram/ml): No effect | inhibition at 6 µg/mL [2, 3]: 50%

c1ccc(-c2cc(-c3ccccc3)c(-c3ccccc3)c(-c3ccccc3)c2-c2ccccc2)cc1 [pentaphenylbenzene]
Stimulation at 6-12 micrograms/ml Without HGF/SF [1, 5]: two to three fold stimulation | Inhibition at 6-12 micrograms/ml With ([2]; 6-12 micrograms/ml): 50% inhibition

Cc1nn(-c2onc(-c3c(Cl)cccc3Cl)c2C(=O)NN)c(C)c1Br [(4-bromo-3,5-dimethyl-1H-pyrazol-1-yl)(3-(2,6-dichlorophenyl)isoxazole-4-carbohydrazide)]
Activity at 2 microgram/ml Without HGF/SF: stimulation [1, 6]: 74% | Activity at 2 microgram/ml With HGF/SF (result in words) ([2]; 2 microgram/ml): No effect | Activity at 6 microgram/ml With HGF/SF (result in words) [2]: No effect

Cc1onc(-c2c(Cl)cccc2Cl)c1C(=O)NNc1c(Cl)cncc1Cl [N′4-(3,5-dichloro-4-pyridyl)-3-(2,6-dichlorophenyl)-5-methylisoxazole-4-carbohydrazide]
Activity at 2 microgram/ml Without HGF/SF (result in words) ([1]; 2 microgram/ml, without HGF/SF): No effect | Activity at 6 microgram/ml Without HGF/SF (result in words) ([1]; 6 microgram/ml, without HGF/SF): No effect | inhibition at 2 µg/mL [2, 4]: 25% | inhibition at 6 µg/mL [2, 3]: 25%

Cc1onc(-c2c(Cl)cccc2Cl)c1C(=O)NNC(=O)CON=Cc1ccc(Cl)cc1Cl [N′4-(2-(((2,4-dichlorobenzylidene)amino)oxy)acetyl)-3-(2,6-dichlorophenyl)-5-methylisoxazole-4-carbohydrazide]
Activity at 2 microgram/ml Without HGF/SF: stimulation [1, 6]: 32% | Activity at 6 microgram/ml Without HGF/SF (result in words) ([1]; 6 microgram/ml, without HGF/SF): No effect | Activity at 2 microgram/ml With HGF/SF: stimulation ([2]; 2 microgram/ml, stimulation of HUVEC proliferation): 30% | Activity at 6 microgram/ml With HGF/SF (result in words) [2]: No effect

Cc1onc(-c2c(Cl)cccc2Cl)c1C(=O)NN(C)c1ccc([N+](=O)[O-])cn1 [N′4,5-dimethyl-N′4-(5-nitro-2-pyridyl)-3-(2,6-dichlorophenyl)isoxazole-4-carbohydrazide]
Activity at 2 microgram/ml Without HGF/SF (result in words) ([1]; 2 microgram/ml, without HGF/SF): No effect | Activity at 6 microgram/ml Without HGF/SF (result in words) ([1]; 6 microgram/ml, without HGF/SF): No effect | Activity at 2 microgram/ml With HGF/SF (result in words) ([2]; 2 microgram/ml): No effect | inhibition at 6 µg/mL [2, 3]: 43%

CC(=O)C1=C(C)C[C@H]2[C@@H]3CC=C4C[C@@H](O)CC[C@]4(C)[C@H]3CC[C@]12C [16 methyl-16 Dehydropregnenolone]
Stimulation/Inhibition at 6-12 micrograms/ml Without HGF/SF (result in words) [1, 7]: No effect | Stimulation at 6-12 micrograms/ml With ([2]; 6-12 micrograms/ml): 30% stimulation

Cc1nn(C(=O)c2ccc(Cl)cc2)c(C)c1Cc1c(F)cccc1Cl [(4-(2-chloro-6-fluorobenzyl)-3,5-dimethyl-1H-pyrazol-1-yl)(4-chlorophenyl)methanone]
Activity at 2 microgram/ml Without HGF/SF: stimulation [1, 6]: 40% | activation at 5 µg/mL ([1]; Homo sapiens, HUVEC, 24 h, 5 microg/ml, stimulation of endothelial cell proliferation): 41% | activation at 10 µg/mL ([1]; Homo sapiens, HUVEC, 24 h, 10 microg/ml, stimulation of endothelial cell proliferation): 35% | inhibition at 6 µg/mL [1, 8]: 50% | inhibition at 2 µg/mL [2, 4]: 30% | inhibition at 6 µg/mL [2, 3]: 90%

Cc1onc(-c2c(Cl)cccc2Cl)c1C(=O)NN(C)C [N′4,N′4,5-trimethyl-3-(2,6-dichlorophenyl)isoxazole-4-carbohydrazide]
Activity at 2 microgram/ml Without HGF/SF (result in words) ([1]; 2 microgram/ml, without HGF/SF): No effect | Activity at 6 microgram/ml Without HGF/SF (result in words) ([1]; 6 microgram/ml, without HGF/SF): No effect | Activity at 2 microgram/ml With HGF/SF (result in words) ([2]; 2 microgram/ml): No effect | inhibition at 6 µg/mL [2, 3]: 40%

c1ccc(-c2cc(-c3ccccc3)cc(-c3ccccc3)c2)cc1 [1,3,5-triphenylbenzene]
Stimulation at 6-12 micrograms/ml Without HGF/SF [1, 5]: 40-60% stimulation | Stimulation at 6-12 micrograms/ml With ([2]; 6-12 micrograms/ml): two fold stimulation

Cc1onc(-c2c(Cl)cccc2Cl)c1C(=O)NN1CCCCCC1 [N4-azepan-1-yl-3-(2,6-dichlorophenyl)-5-methylisoxazole-4-carboxamide]
Activity at 2 microgram/ml Without HGF/SF (result in words) ([1]; 2 microgram/ml, without HGF/SF): No effect | inhibition at 6 µg/mL [1, 8]: 50% | Activity at 2 microgram/ml With HGF/SF (result in words) ([2]; 2 microgram/ml): No effect | inhibition at 6 µg/mL [2, 3]: 50%

c1ccc2c(c1)cc(-c1cc3ccccc3c3ccccc13)c1ccccc12 [9,9-Biphenanthrene]
Stimulation/Inhibition at 6-12 micrograms/ml Without HGF/SF (result in words) [1, 7]: No effect | Inhibition at 6-12 micrograms/ml With ([2]; 6-12 micrograms/ml): 20-40% inhibition

Cc1onc(-c2c(Cl)cccc2Cl)c1C(=O)NNC(=S)Oc1ccccc1[N+](=O)[O-] [2-nitrophenyl 2-((3-(2,6-dichlorophenyl)-5-methylisoxazol-4-yl)carbonyl)hydrazine-1-carbothioate]
Activity at 2 microgram/ml Without HGF/SF (result in words) ([1]; 2 microgram/ml, without HGF/SF): No effect | inhibition at 6 µg/mL [1, 8]: 80% | Activity at 2 microgram/ml With HGF/SF (result in words) ([2]; 2 microgram/ml): No effect | inhibition at 6 µg/mL [2, 3]: 80%

Cc1nn(C)c(C)c1Cc1c(F)cccc1Cl [4-(2-chloro-6-fluorobenzyl)-1,3,5-trimethyl-1H-1-pyrazole]
Activity at 2 microgram/ml Without HGF/SF: stimulation [1, 6]: 50% | Activity at 6 microgram/ml Without HGF/SF (result in words) ([1]; 6 microgram/ml, without HGF/SF): No effect | Activity at 2 microgram/ml With HGF/SF (result in words) ([2]; 2 microgram/ml): No effect | Activity at 6 microgram/ml With HGF/SF: inhibition (blocked SF) [2, 3]: by 30%

c1ccc(-c2sc(-c3ccccc3)c(-c3ccccc3)c2-c2ccccc2)cc1 [tetraphenylthiophene]
Inhibition at 6-12 micrograms/ml Without HGF/SF ([1]; 6-12 micrograms/ml, without HGF/SF, inhibition of endothelial cell proliferation): 50% inhibition | Stimulation/Inhibition at 6-12 micrograms/ml With (result in words) ([2]; 6-12 micrograms/ml): No effect

Cc1nn(CCC#N)c(C)c1Cc1c(Cl)cccc1Cl [3-(4-(2,6-dichlorobenzyl)-3,5-dimethyl-1H-pyrazol-1-yl)propanenitrile]
Activity at 2 microgram/ml Without HGF/SF (result in words) ([1]; 2 microgram/ml, without HGF/SF): No effect | inhibition at 6 µg/mL [1, 8]: 34% | inhibition at 2 µg/mL [2, 4]: 36% | inhibition at 6 µg/mL [2, 3]: 65%

C(=C1c2ccccc2-c2ccccc2-c2ccccc21)c1ccc(-c2ccccc2)cc1 [9-biphenyl-4-ylmethylene-9H-tri-benzo(A,C,E)-cycloheptene]
Stimulation at 6-12 micrograms/ml Without HGF/SF [1, 5]: 30-40% stimulation | Stimulation at 6-12 micrograms/ml With ([2]; 6-12 micrograms/ml): 20-30% stimulation

CC(C)(C)c1n[nH]c(C(C)(C)C)c1Cc1c(F)cccc1Cl [3,5-di(tert-butyl)-4-(2-chloro-6-fluorobenzyl)-1H-pyrazole]
Activity at 2 microgram/ml Without HGF/SF: stimulation [1, 6]: 51% | Activity at 6 microgram/ml Without HGF/SF (result in words) ([1]; 6 microgram/ml, without HGF/SF): No effect | inhibition at 2 µg/mL [2, 4]: 25% | inhibition at 6 µg/mL [2, 3]: 50%

Cc1onc(-c2c(Cl)cccc2Cl)c1C(=O)NNc1cccc(C(F)(F)F)n1 [N′4-(6-(trifluoromethyl)-2-pyridyl)-3-(2,6-dichlorophenyl)-5-methylisoxazole-4-carbohydrazide]
inhibition at 2 µg/mL ([1]; Homo sapiens, 2 microgram/ml, without HGF/SF, inhibition of HUVEC proliferation): 40% | inhibition at 6 µg/mL [1, 8]: 50% | inhibition at 2 µg/mL [2, 4]: 50% | inhibition at 6 µg/mL [2, 3]: 80%
